Reference: patent US9981916B2 (Genentech, Inc., priority 2013, dated 2018)

What follows are molecules tested against T1, RORc ligand binding domain (Homo sapiens, UniProt P51449) (assay: In vitro RORc ligand binding assay (25-[3H]hydroxycholesterol displacement, filter binding)). Conditions: 6 nM 25-[3H]hydroxycholesterol, 0.6 ug/mL RORc receptor, 3 h at 25° C.
T1 construct: host or cells: E. coli
T1 sequence (P51449 269-508 limits assumed): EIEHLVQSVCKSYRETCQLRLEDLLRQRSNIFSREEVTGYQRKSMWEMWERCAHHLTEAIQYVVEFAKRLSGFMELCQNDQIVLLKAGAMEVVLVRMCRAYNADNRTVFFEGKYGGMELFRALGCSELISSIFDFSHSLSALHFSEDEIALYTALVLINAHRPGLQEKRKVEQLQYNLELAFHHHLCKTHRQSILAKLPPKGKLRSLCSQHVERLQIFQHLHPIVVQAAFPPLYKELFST
Description: Example 17: In Vitro RORc Ligand Binding Assay
This assay was used to determine a compound's potency in inhibiting activity of RORc by determining, Kiapp, IC50, or percent inhibition values.
On day of the assay, 100 uL of 0.05% CHAPS (in deionized H2O) was added to all wells of the GFB Unifilter plate and allowed soak for 1 h. A wash buffer of 50 mM HEPES (pH 7.4), 150 mM NaCl, and 5 mM MgCl2 was prepared to wash the filter plate. To prepare an assay buffer, BSA was added to the wash buffer to reach 0.01% and DTT was added to reach 1 mM.
For IC50 mode, 10 mM compound stocks were serially diluted in DMSO with DMSO to give 20× required final concentration in DMSO (15 uL compound+30 uL DMSO). The 20× compound stocks were diluted in DMSO with Assay Buffer 4-fold to reach 5× the final test concentration in 25% DMSO (10 uL compound+30 uL Assay Buffer). Solutions were mixed by aspiration several times with a pipette set on 50 uL volume. For the assay, 10 uL of 5× compound stock solutions in 25% DMSO were added to the assay plate in duplicate.
For two point screening, 10 mM stock compound solutions were diluted in DMSO to obtain 200 uM (20× the high test concentration) and then diluted 10-fold further to reach 20 uM (20× the low test concentration). The 20× stocks were diluted 4-fold with Assay Buffer (10 uL compound+30 uL Assay Buffer) to reach 5× the test concentrations (50 uM and 5 uM) and 10 uL were added to two assay plates for the duplicate wells. With each concentration tested on 2 plates, each set of 80 compounds used 4 assay plates (1 uM and 10 uM, with n=2).
25-hydroxycholesterol (1 uM) was used to determine the level of NSB signal is prepared in DMSO as for compounds above, then diluted in Assay Buffer to give a final concentration of 5 uM. For 25-hydroxycholesterol in 25% DMSO/75% Assay Buffer; 10 uL per well was used for NSB samples. Wells for Total Binding and No Receptor sample determination contained 10 uL of 25% DMSO/75% Assay Buffer per well.
25-[^3H]hydroxycholesterol was diluted in Assay Buffer to obtain 15 nM and vortex to mix. Add 20 uL to all wells to reach 6 nM final concentration in the assay.
Stock receptor solution was diluted in assay buffer to obtain 1.5 ug/mL in Assay Buffer. 20 uL was added to all wells. For No Receptor samples, 20 uL Assay Buffer was substituted for receptor solution.
Assay plates were 96-well polypropylene V-bottom plates. 10 uL of 5× compound in 25% DMSO/75% Assay Buffer was added to Test wells. 10 uL of 25% DMSO/75% Assay Buffer was added to Total Binding or No Receptor wells. 10 uL of 5 uM 25-hydroxycholesterol in 25% DMSO/75% Assay Buffer was added to NSB wells. 20 uL of 15 nM 25-[^3H]hydroxycholesterol prepared in Assay Buffer was added to all wells. 20 uL of 1.5 ug/mL RORc receptor was added to wells (or […] Assay Buffer to No R wells). Following addition to the wells, the plates were incubated 3 h at 25° C.
Using a Packard Filtermate Harvester, the filter plate were washed 4 times following transfer of the incubated samples. Plates were dry-filtered completely (2 h at 50° C. or overnight at room temperature). 50 uL Microscint 0 was added to all wells and read on Topcount protocol Inverted.
Final concentrations were as follows: 50 mM HEPES buffer (pH 7.4); 150 mM NaCl; 1 mM DTT; 5 mM MgCl2; 0.01% BSA; 5% DMSO; 0.6 ug/mL RORc receptor; 6 nM 25-[^3H]hydroxycholesterol. For NSB wells, 1 uM 25-hydroxycholesterol was also present.

Point of comparison: `CC1(C)[C@@H]2CC[C@@]1(C(=O)N1CC[C@H](CO)C1)c1nnc(-c3c(F)cccc3F)cc12` [Example 216, ((5S,8S)-3-(2,6-difluorophenyl)-9,9-dimethyl-5,6,7,8-tetrahydro-5,8-methanocinnolin-8-yl)((S)-3-(hydroxymethyl)pyrrolidin-1-yl)methanone], IC50 830 nM. Against it:
- CC(C)c1nnc([C@@]23CC[C@@H](c4cc(-c5c(F)cccc5F)nnc42)C3(C)C)o1 [Example 125, (5R,8R)-3-(2,6-difluorophenyl)-9,9-dimethyl-8-(5-isopropyl-1,3,4-oxadiazol-2-yl)-5,6,7,8-tetrahydro-5,8-methanocinnoline] — within 1.5-fold, 811 nM
- CN(C)C(=O)[C@]12CC[C@H](c3cc(-c4c(F)cccc4F)nnc31)C2(C)C [Example 73, (5S,8S)-3-(2,6-difluorophenyl)-N,N,9,9-tetramethyl-6,7-dihydro-5,8-methanocinnoline-8(5H)-carboxamide] — 29-fold lower, 29 nM
- Cn1ccc([C@@]23CC[C@@H](c4cc(-c5c(F)cccc5F)nnc42)C3(C)C)n1 [Example 186] — 5.5-fold lower, 152 nM
- CCN(C[C@@]12CC[C@@H](c3cc(-c4c(F)cccc4F)nnc31)C2(C)C)c1cncc(=O)[nH]1 [Example 323, 6-((((5R,8S)-3-(2,6-difluorophenyl)-9,9-dimethyl-5,6,7,8-tetrahydro-5,8-methanocinnolin-8-yl)methyl)(ethyl)amino) pyrazin-2(1H)-one] — 69-fold lower, 12 nM
- CC1(C)[C@@H]2CC[C@@]1(C#N)c1nnc(-c3ccccc3F)cc12 [Example 52, (5S,8S)-3-(2-fluorophenyl)-9,9-dimethyl-6,7-dihydro-5,8-methanocinnoline-8(5H)-carbonitrile] — 1.8-fold higher, 1530 nM
- CC1(C)[C@H]2CC[C@]1(COc1cnccn1)c1nnc(-c3c(F)cccc3F)cc12 [Example 329, (5R,8R)-3-(2,6-difluorophenyl)-9,9-dimethyl-8-((pyrazin-2-yloxy)methyl)-5,6,7,8-tetrahydro-5,8-methanocinnoline] — 3.1-fold lower, 271 nM
- CC(C)(C)OC(=O)N[C@]12CC[C@H](c3cc(-c4c(F)cccc4F)nnc31)C2(C)C [Example 256, tert-butyl ((5S,8S)-3-(2,6-difluorophenyl)-9,9-dimethyl-5,6,7,8-tetrahydro-5,8-methanocinnolin-8-yl)carbamate] — 2.8-fold higher, 2330 nM
- CC1(C)[C@@H]2CC[C@@]1(C(=O)N1CC(n3cccn3)C1)c1nnc(-c3c(F)cccc3F)cc12 [Example 232, (3-(1H-pyrazol-1-yl)azetidin-1-yl)((5S,8S)-3-(2,6-difluorophenyl)-9,9-dimethyl-5,6,7,8-tetrahydro-5,8-methanocinnolin-8-yl)methanone] — 3.6-fold lower, 232 nM
- CC(=O)N[C@H]1CCN(C(=O)[C@]23CC[C@H](c4cc(-c5c(F)cccc5F)nnc42)C3(C)C)C1 [Example 225, N-((S)-1-((5S,8S)-3-(2,6-difluorophenyl)-9,9-dimethyl-5,6,7,8-tetrahydro-5,8-methanocinnoline-8-carbonyl)pyrrolidin-3-yl)acetamide] — 3.3-fold higher, 2720 nM
- CC1(C)[C@H]2CC[C@]1(c1ccn[nH]1)c1nnc(-c3c(F)cccc3F)cc12 [Example 113, (5R,8S)-3-(2,6-difluorophenyl)-9,9-dimethyl-8-(1H-pyrazol-5-yl)-5,6,7,8-tetrahydro-5,8-methanocinnoline] — 19-fold lower, 43 nM
- Cc1nnc(N(CCO)C[C@@]23CC[C@@H](c4cc(-c5c(F)cccc5F)nnc42)C3(C)C)o1 [Example 155, 2-((((5R,8S)-3-(2,6-difluorophenyl)-9,9-dimethyl-5,6,7,8-tetrahydro-5,8-methanocinnolin-8-yl)methyl)(5-methyl-1,3,4-oxadiazol-2-yl)amino)ethanol] — 12-fold lower, 67 nM
- CC1(C)[C@@H]2CC[C@@]1(c1nnc(CO)o1)c1nnc(-c3c(F)cccc3F)cc12 [Example 111, {5-[(5S,8S)-3-(2,6-difluorophenyl)-9,9-dimethyl-6,7-dihydro-5,8-methanocinnolin-8(5H)-yl]-1,3,4-oxadiazol-2-yl}methanol] — 4.3-fold lower, 195 nM
- CC1(C)[C@@H]2CC[C@@]1(N1CCNC1=O)c1nnc(-c3c(F)cccc3F)cc12 [Example 252, 1-((5S,8S)-3-(2,6-difluorophenyl)-9,9-dimethyl-5,6,7,8-tetrahydro-5,8-methanocinnolin-8-yl)imidazolidin-2-one] — 1.9-fold higher, 1580 nM
- CC1(C)[C@H]2CC[C@]1(c1cccnc1)c1nnc(-c3c(F)cccc3F)cc12 [Example 154, (5R,8S)-3-(2,6-difluorophenyl)-9,9-dimethyl-8-(pyridin-3-yl)-5,6,7,8-tetrahydro-5,8-methanocinnoline] — 36-fold lower, 23 nM
- Cc1nnc([C@]23CC[C@H](c4cc(-c5c(F)cccc5F)nnc42)C3(C)C)o1 [Example 103, (5S,8S)-3-(2,6-difluorophenyl)-9,9-dimethyl-8-(5-methyl-1,3,4-oxadiazol-2-yl)-5,6,7,8-tetrahydro-5,8-methanocinnoline] — 4-fold lower, 205 nM
- CCN(C[C@@]12CC[C@@H](c3cc(-c4c(F)cccc4F)nnc31)C2(C)C)C(=O)CO [Example 162, N-(((5R,8S)-3-(2,6-difluorophenyl)-9,9-dimethyl-5,6,7,8-tetrahydro-5,8-methanocinnolin-8-yl)methyl)-N-ethyl-2-hydroxyacetamide] — 100-fold lower, 8 nM
- CN(C)Cc1nnc([C@@]23CC[C@@H](c4cc(-c5c(F)cccc5F)nnc42)C3(C)C)o1 [Example 196, 1-(5-((5R,8R)-3-(2,6-difluorophenyl)-9,9-dimethyl-5,6,7,8-tetrahydro-5,8-methanocinnolin-8-yl)-1,3,4-oxadiazol-2-yl)-N,N-dimethylmethanamine] — 2.3-fold higher, 1890 nM
- CC1(C)[C@@H]2CC[C@@]1(C(=O)N1C[C@@H]3C[C@H]1CN3S(C)(=O)=O)c1nnc(-c3c(F)cccc3F)cc12 [Example 241, ((5S,8S)-3-(2,6-difluorophenyl)-9,9-dimethyl-5,6,7,8-tetrahydro-5,8-methanocinnolin-8-yl)((1S,4S)-5-(methylsulfonyl)-2,5-diazabicyclo[2.2.1]heptan-2-yl)methanone] — 2.5-fold lower, 327 nM
- CC1(C)[C@H]2CC[C@]1(C(=O)N1CC(F)(F)C1)c1nnc(-c3c(F)cccc3F)cc12 [Example 135, (3,3-difluoroazetidin-1-yl)((5R,8R)-3-(2,6-difluorophenyl)-9,9-dimethyl-5,6,7,8-tetrahydro-5,8-methanocinnolin-8-yl)methanone] — within 1.5-fold, 643 nM
- CC1(C)[C@@H]2CC[C@@]1(I)c1nnc(-c3ccccc3F)cc12 [Example 200, (5R,8S)-3-(2-fluorophenyl)-8-iodo-9,9-dimethyl-5,6,7,8-tetrahydro-5,8-methanocinnoline] — 2.5-fold lower, 338 nM
- CN(C)[C@@H]1CCN(C(=O)[C@]23CC[C@H](c4cc(-c5c(F)cccc5F)nnc42)C3(C)C)C1 [Example 242, ((5S,8S)-3-(2,6-difluorophenyl)-9,9-dimethyl-5,6,7,8-tetrahydro-5,8-methanocinnolin-8-yl) ((R)-3-(dimethylamino)pyrrolidin-1-yl)methanone] — within 1.5-fold, 707 nM
- CC[C@]12CC[C@H](c3cc(-c4ccccc4F)nnc31)C2(C)C [Example 35, (5S,8R)-8-ethyl-3-(2-fluorophenyl)-9,9-dimethyl-5,6,7,8-tetrahydro-5,8-methanocinnoline] — 22-fold lower, 37 nM
